Tested on: genomic locus of beta-actin
Test: OFP-positive cells by flow cytometry after electroporation of Cas9 RNP and donor DNA into human primary T cells
Format: cell-based
Settings: 30 μM, 48 hours
Procedure: Human peripheral blood mononuclear cells (PBMCs) were isolated from peripheral blood using Ficoll-Paque PLUS density gradient according to manufacturer's instructions. The human primary T cells were then isolated using DYNABEADS™ UNTOUCHED™ Human T Cells Kit and expanded using OPTMIZER™ CTS™ T-Cell Expansion SFM supplemented with 200 IU/mL of IL-2. The activation and expansion of human T cells were carried out using DYNABEADS™ Human T-Expander CD3/CD28 kit. On day 3 of activation, T cells were harvested for transfection.
For transfection of primary T cells, 1×10^5 cells were used per NEON® electroporation with voltage set at 1700V, pulse width set at 20 ms, and the number of pulses set at 1, respectively. […] Cells were analyzed at 48 hours post transfection.
Traditionally, a plasmid donor was used to incorporate large DNA molecules into the genome. […] At 48 hours post transfection, we analyzed the percentages of OFP-positive cells using flow cytometry. […]
Linear ds- or ss-DNA donor could be degraded in vivo by exonucleases. […] At 48 hours post transfection, the percentages of OFP-positive cells were determined by flow cytometric analysis. […]
The disruption of NHEJ repair pathway is known to improve HDR efficiency. […] At 48 hours post transfection, we analyzed the cells by flow cytometry.

SMILES: O=c1cc(N2CCOCC2)oc2c1ccc1ccccc12 [Nu7026, 2-(4-Morpholinyl)-4H-naphthol[1,2-b]pyran-4-one]
- increase of the percentage of OFP-positive cells (amine-modified donor DNA): ~2 fold
- increase of the percentage of OFP-positive cells (unmodified donor DNA): approximately 5 fold
